Experimental data taken from the NIST ThermoML archive (doi:10.1016/j.jct.2011.02.008).

Experiment: xn = mol fraction of the nth substance listed
Conditions: Liquid, Vibrating tube method

COC(=O)c1ccccc1 [methyl benzoate] + C1CCCCC1
mass density [kg/m3]
Conditions | x1 = 0.0985 | x1 = 0.1963 | x1 = 0.2939 | x1 = 0.3942 | x1 = 0.4955 | x1 = 0.596 | x1 = 0.6975 | x1 = 0.7993 | x1 = 0.8982
278.15 K, 100 kPa | 823.9 | 855.7 | 887.6 | 919.6 | 951.4 | 983.4 | 1014.3 | 1043.9 | 1072.7
278.15 K, 1000 kPa | 824.5 | 856.4 | 888.3 | 920.2 | 952 | 984 | 1014.9 | 1044.4 | 1073.2
278.15 K, 5000 kPa | 827.6 | 859.3 | 891.2 | 923 | 954.8 | 986.7 | 1017.4 | 1046.9 | 1075.6
278.15 K, 10000 kPa | 831.2 | 863 | 894.7 | 926.4 | 958 | 989.9 | 1020.5 | 1049.8 | 1078.5
278.15 K, 15000 kPa | 834.6 | 866.3 | 898 | 929.7 | 961.2 | 993 | 1023.5 | 1052.8 | 1081.3
278.15 K, 20000 kPa | 838 | 869.6 | 901.3 | 932.8 | 964.3 | 996 | 1026.4 | 1055.6 | 1084.1
278.15 K, 25000 kPa | 841.2 | 872.8 | 904.4 | 935.9 | 967.3 | 998.9 | 1029.3 | 1058.3 | 1086.7
278.15 K, 30000 kPa | 844.4 | 875.9 | 907.4 | 938.9 | 970.2 | 1001.7 | 1032 | 1061 | 1089.3
278.15 K, 35000 kPa | 847.4 | 878.9 | 910.4 | 941.8 | 973 | 1004.5 | 1034.7 | 1063.6 | 1091.9
278.15 K, 40000 kPa | 850.5 | 881.8 | 913.3 | 944.6 | 975.8 | 1007.2 | 1037.4 | 1066.2 | 1094.4
278.15 K, 45000 kPa | – | 884.6 | 916.1 | 947.4 | 978.5 | 1009.9 | 1040 | 1068.7 | 1096.9
278.15 K, 50000 kPa | – | 887.4 | 918.8 | 950 | 981.1 | 1012.5 | 1042.5 | 1071.2 | 1099.3
278.15 K, 55000 kPa | – | 890.1 | 921.5 | 952.7 | 983.7 | 1015 | 1045 | 1073.7 | 1101.7
278.15 K, 60000 kPa | – | 892.6 | 923.9 | 955.1 | 986.3 | 1017.4 | 1047.3 | 1075.9 | 1103.8
288.15 K, 100 kPa | 814.3 | 846.1 | 878 | 909.9 | 941.8 | 973.8 | 1004.7 | 1034.2 | 1063.1
288.15 K, 1000 kPa | 815 | 846.9 | 878.7 | 910.6 | 942.4 | 974.5 | 1005.3 | 1034.8 | 1063.7
288.15 K, 5000 kPa | 818.2 | 850 | 881.8 | 913.6 | 945.3 | 976.6 | 1008 | 1037.5 | 1066.2
288.15 K, 10000 kPa | 822 | 853.8 | 885.5 | 917.2 | 948.8 | 980.7 | 1011.3 | 1040.6 | 1069.2
288.15 K, 15000 kPa | 825.8 | 857.4 | 889.1 | 920.7 | 952.2 | 983.9 | 1014.4 | 1043.6 | 1072.2
288.15 K, 20000 kPa | 829.2 | 860.9 | 892.5 | 924 | 955.4 | 987.1 | 1017.5 | 1046.6 | 1075
288.15 K, 25000 kPa | 832.7 | 864.3 | 895.8 | 927.2 | 958.6 | 990.1 | 1020.5 | 1049.5 | 1077.9
288.15 K, 30000 kPa | 836 | 867.5 | 899 | 930.3 | 961.6 | 993.1 | 1023.4 | 1052.3 | 1080.6
288.15 K, 35000 kPa | 839.1 | 870.7 | 902.1 | 933.4 | 964.6 | 996 | 1026.2 | 1055 | 1083.3
288.15 K, 40000 kPa | 842.2 | 873.7 | 905.1 | 936.3 | 967.5 | 998.8 | 1028.9 | 1057.7 | 1085.9
288.15 K, 45000 kPa | 845.2 | 876.7 | 908 | 939.2 | 970.3 | 1001.6 | 1031.6 | 1060.3 | 1088.4
288.15 K, 50000 kPa | 848.1 | 879.6 | 910.9 | 942 | 973 | 1004.3 | 1034.3 | 1062.9 | 1090.9
288.15 K, 55000 kPa | 850.9 | 882.4 | 913.6 | 944.7 | 975.7 | 1006.9 | 1036.8 | 1065.5 | 1093.4
288.15 K, 60000 kPa | 853.5 | 885 | 916.2 | 947.2 | 978.2 | 1009.3 | 1039.2 | 1067.8 | 1095.9
298.15 K, 100 kPa | 804.8 | 836.5 | 868.4 | 900.3 | 932.2 | 964.2 | 995.1 | 1024.7 | 1053.6
298.15 K, 1000 kPa | 805.6 | 837.3 | 869.2 | 901 | 932.9 | 964.9 | 995.8 | 1025.3 | 1054.2
298.15 K, 5000 kPa | 809 | 840.7 | 872.5 | 904.2 | 935.9 | 967.9 | 998.6 | 1028.1 | 1056.9
298.15 K, 10000 kPa | 813.1 | 844.7 | 876.3 | 908 | 939.6 | 971.4 | 1002 | – | –
